Measurements taken from patent publication US8791128B2, “Compositions for treating or delaying the onset of hair loss” (University of Central Florida Research Foundation, Inc., priority 2008, dated 2014).
Entries after “also recorded” stand apart in the source; their conditions may differ.

How the values were obtained:
rodent cortical neurons = settings: cited from earlier work
[1] = system: BrdU positive cells of the epidermis; assay: Topical application study: BrdU immunohistochemistry of epidermis; format: in vivo, C57 BL/6 mice
Procedure: (§1) Based on the inventors' realizations, the decision was made to test NBI-18 in a topical application study to induce the genesis or re-growth of hair. Varying doses of NBI-18 [0.75 mg/ml, 1.5 mg/ml, 3.0 mg/ml, and control (50% ETOH)] was delivered in 5 ul drops to shaved locations on the back of C57 BL/6 mice. The varying doses were given 5 consecutive days and on day 4 and 5 BrdU (100 mg/kg, ip) was injected. […] NBI-18 has proven to produce a desired affect in rodent models that show a predominant re-growth of hair using the topical application of the small molecular pyrimidine compound known as NBI-18. We are hypothesizing that NBI-18 treatment will lead to greater cytogenesis and eventually lead to a commercial product that will eradicate hair loss. These studies will be further described in the Examples provided below.
In this study, the inventors determined a dose range where keratinogenesis occurs in healthy mice to help us learn about the fate of newly formed cells within the epidermis. […] In order for us to eliminate unnecessary anesthesia, our vehicle of delivery was 50% Ethanol (ETOH). NBI-18 was suspended in 50% ETOH using the concentrations of 0.75 mg/ml, 1.5 mg/ml, 3.0 mg/ml, and control (50% ETOH) respectively.
A. Two C57 BL/6 mice were selected for the topical application study of NBI-18. The mice were prepped by shaving four specific locations lateral/dorsal in a circular pattern. NBI-18 was delivered to the specified areas (right, counterclockwise from lowest to highest dose, then control) in concentrations of 1.5 mg/ml, 3.0 mg/ml, 6.0 mg/ml and control (50% ETOH) respectively. The solutions were applied to the center of these locations in a 5 ul dose for 5 consecutive days and on days 4 and 5 BrdU (100 mg/K, ip) was injected. On day 7 the mice were euthanized using a high dose pentobarbital (70 mg/kg, ip) and the treated epidermis was dissected and placed into 4% paraformaldehyde fixative for 48 hour
Immunohistochemistry of epidermis. Epidermal sections were mounted into square embedding molds with freezing medium (O.C.T. compound, Tissue Tek), sliced in 20 uM sections then mounted onto adhesive coated slides (Instrumedics, Inc) via tape transfer method. Slides were washed with PBS then placed in 2NHCL for 30 minutes to […]. Slides were then washed again with PBS, then blocked using 3% Donkey serum in PBST for 1 hour. Primary anti-body suspended in blocking solution used was anti-BrdU (sigma) at 1:1000 overnight in 4C. Slide were washed 3× then placed in secondary anti-body suspended in blocking solution, FITC (Jackson ImmunoResearch) at 1:500 for 2 hours at room temperature then washed with PBS. Slides were mounted using Vectashield with Dapi. […]

human NSCs = assay: Proliferation of human NSCs in culture; format: cell-based
[2] = Toxicity study (i.p., 7 days; rotarod, open field, postural reflex, forelimb placing); format: in vivo, C57 BL/6 mice; settings: 100, 300, 1000 mg/kg/day i.p. for 7 days
Procedure: A total of 16 male C57 BL/6 mice (12 weeks old) weighing 25-30 g were used to investigate the toxicity of NBI-18. The mice were maintained on a 12-h light/dark cycle, and had free access to food and water through the study period. These animals were housed four per cage. In this study, animals were divided into four groups (four/group). Acute toxicity has been tested up to 1000 mg/kg. NBI-18 (0, 100, 300,1000 mg/kg/day, i.p.) was injected for 7 days and for the control group, the same volume of vehicle saline was injected. Bromodeoxyuridine (BrdU)(Sigma Chemical Co., St Louis, Mo.), was injected (100 mg/kg/day, i.p.) for the last three days (days 5-7). For behavioral testing, rotarod and open field tests were used to examine balance and coordination of mice before, during and after NBI-18 injection. Also, postural reflex and forelimb placing tests were performed to evaluate the neurological functions for the animals. All the animals were anesthetized with pentobarbital (i.p.) 48 h after the last BrdU injection and immediately per fused with 4% paraformaldehyde fixative. The brains were immediately dissected, post fixed for 24 h and processed for immunohistochemistry.

[3] = Extraction of NBI-18 from epidermis of treated mice; format: in vivo; settings: 24 hours post-injection
From the text: (§2) U.S. Pat. Nos. 4,959,368; 5,976,523. One derivative of interest is heterocyclic pyrimidine molecule referred to herein as ‘NBI-18’ (2-piperadino-6-methyl-5-oxo-5,6-dihydro-(7H) pyrrolo-[3,4-d]pyrimidine maleate; Mwt. 349.54). […] U.S. Patent Pub 20030139410. The mechanism of action of NBI-18 is not known, although some evidence implies the activation of the MAPK (mitogen activated protein kinase) pathway, a cascade that is also activated by peptide growth factors. […] NBI-18 has been tested in isolated animal models—axon growth in mice and muscle regeneration in rats—with no evidence of mechanistic details relating to function. Mechanism of action studies to find the drug target, are planned as part of our ongoing research. Upon learning about the availability of NBI-18 family of molecules, it was hypothesized that the compounds may be involved in the proliferation process of Stem Cells and the inventors decided to examine the possible implication for genesis of Keratinocyte Stem Cells (KSCs) or possibly the human bulge cells which provide the niche for KSCs, in animal models.

[4] = Absorption and half-life in rodents (HPLC analysis); format: in vivo, rat
From the text: as §2

[5] = system: cells in the brain of rodents; assay: NBI-18 injections: cell proliferation and neurogenesis in rodent brain; format: in vivo
[6] = Ames test by a third party; settings: third party company
From the text: as §2

hair re-growth = assay: Topical application study: hair re-growth on shaved skin; format: in vivo, C57 BL/6 mice; settings: topical 0.75, 1.5, 3.0 mg/ml, 5 consecutive days
Procedure: as §1
B. Four C57 BL/6 mice were selected for the topical application study of NBI-18. The mice were prepped by shaving four specific locations lateral/dorsal in a circular pattern. NBI-18 was delivered to the specified areas (right, counterclockwise from lowest to highest dose, then control) in concentrations of 0.75 mg/ml, 1.5 mg/ml, and 3.0 mg/ml, and control (50% ETOH) respectively. The solutions were applied to the center of these locations in a 5 ul dose for 5 consecutive days and on days 4 and 5 BrdU (100 mg/K, ip) was injected. […]

[7] = daily injections for five days, rodents

Compound: CN1Cc2nc(N3CCCCC3)ncc2C1=O.O=C(O)/C=C\C(=O)O [NBI-18, 2-piperadino-6-methyl-5-oxo-5,6-dihydro-(7H) pyrrolo-[3,4-d]pyrimidine maleate]
- rate of apoptosis (rodent cortical neurons; TUNEL assays): reducing the rate of apoptosis
- activity in neuron culture (rodent cortical neurons; bFGF, nerve growth factor, EGF, insulin-like growth factor): active primarily in the presence of various growth factors
- survival of rodent cortical neurons (rodent cortical neurons): promoted the survival
- newly developed (BrdU) cells versus control ([1]; Example 3A, topical 1.5, 3.0, 6.0 mg/ml, 5 ul, 5 days, FIG. 1): mass increases of newly developed cells
- migration pattern of new cells ([1]; Example 3A, topical 1.5, 3.0, 6.0 mg/ml, FIG. 1): alignment towards migration patterns
- dose dependence of the elevation in BrdU positive stained cells ([1]; topical 0.75, 1.5, 3.0 mg/ml in 50% ETOH): did not demonstrate a dose dependent increase
- BrdU positive (proliferating) cells in comparison to control ([1]; topical 0.75, 1.5, 3.0 mg/ml in 50% ETOH, 5 ul, 5 consecutive days): abundant increase in proliferating cells; also recorded: vast increase; also recorded: dramatic elevation; also recorded: some varying levels of increase; also recorded: increases the number of BrdU positive cells
- proliferation of human NSCs (human NSCs): stimulate the proliferation
- behavioral or neurological changes [2]: no immediate behavioral or neurological changes
- symptoms of toxicity [2]: no symptoms of toxicity
- presence in epidermis [3]: can be extracted
- absorption ([4]; after intraperitoneal as well as oral administration, rodent studies): absorbed well
- oral bioavailability ([4]; general statement): orally bioavailability
- t1/2 ([4]; rat circulation, HPLC analysis): > 4 h
- dose dependence of the increase in proliferation ([5]; animal studies): dose dependent
- neurogenesis ([5]; daily injections for five days, at four weeks, young and aged rodents): stable neurogenesis
- pathological effects [5, 7]: no discernible pathological effects
- symptoms of toxicity [5, 7]: no symptoms of toxicity
- proliferation of cells in the brain ([5]; injections 5 mg/kg, rodents): increased proliferation
- mutagenicity [6]: not mutagenic; also recorded: no mutagenesis or toxicity
- time to re-growth of hair near to its original length (hair re-growth): ≤ 7 days
- hair re-growth in treated areas compared to control areas (hair re-growth; 5 ul, shaved skin): visibly complete hair growth; also recorded: visible re-growth of hair; also recorded: actual hair re-growth
